{"source": "patent US20060153861A1", "about": "“BCR-ABL imatinib resistance-associated peptides and methods of use thereof” (priority 2004, published 2006)", "key": {"[1]": {"test_system": "T cells from HLA A0201 donors challenged with peptide-pulsed T2 cells", "experiment": "Gamma interferon ELISPOT of T cells after in vitro stimulation with peptide", "format": "cell-based, human", "conditions": "healthy HLA A0201 donors"}, "[2]": {"target": "HLA A0201 (Homo sapiens, UniProt P04439, D140Y/D185E/D98H/E176V/E277Q/G131W/G231S/I119V/I121R/I166T/I218V/L300P/L318F/N151K/N90K/P208A/P217A/Q86G/Q94H/R138H/R169H/T345S)", "experiment": "BIMAS predicted score for binding to HLA A0201", "conditions": "analogue versus native CMLA2", "procedure": "Peptides with potential CTL epitopes can be predicted by means of a peptide library-based scoring system for MHC class I-binding peptides. AA sequences of the human b3a2 and b2a2 fusion proteins were scanned for peptides with potential binding capacity for HLA A0201, a subtype encompassing 95% of the HLA-A02 allele. HLA-A0201 is expressed in about 40% of the Caucasian population.\nSubstitutions were determined using the software of the Bioinformatics & Molecular Analysis Section (National Institutes of Health, Washington, D.C.) (Parker K C, et al. J Immunol 1994;152(1):163-75; available at http://bimas.dcrt.nih.gov/cgi-bin/molbio/ken_parker_comboform), which ranks 9-mer or 10-mer peptides on a predicted half life dissociation coefficient from HLA class I molecules. Several analogue peptides were designed whereby one or both anchor amino acids or additional amino acids adjacent to anchor amino acids were modified. […] All the native peptides were predicted to have a half life of less than one minute. Most substitutions affected the primary or secondary anchor motifs (leucine in position 2 or valine in position 9 or 6) but in some cases, a tyrosine was substituted in position 1. […] Also depicted in Table 1 are the predicted half lives according to another software program, […] (Rammensee H G, et al., Immunogenetics 1995; 41(4): 178-228; available at http://syfpeithi.bmi-heidelberg.com)."}, "[3]": {"target": "T1, HLA A0201 molecules (Homo sapiens, UniProt P04439, D140Y/D185E/D98H/E176V/E277Q/G131W/G231S/I119V/I121R/I166T/I218V/L300P/L318F/N151K/N90K/P208A/P217A/Q86G/Q94H/R138H/R169H/T345S)", "T1 construct": "endogenous in cells; host or cells: T2 (174xCEM.T2) human cell line", "experiment": "T2 assay for peptide binding to HLA A0201 molecules", "conditions": "T2 cells, FIG. 1", "procedure": "T2 cells (TAP-, HLA-A0201^+) were incubated overnight at 27° C. at a concentration of 1×10^6 cells/ml in FCS-free RPMI medium supplemented with 5 μg/ml human β2microglobulin (Sigma, St Louis, Mo.) in the absence (negative control) or presence of either a positive reference tyrosinase peptide or test peptides at various final concentrations (50, 10, 1, and 0.1 μg/ml). Following a 4-hour incubation with 5 μg/ml brefeldin A (Sigma), T2 cells were labeled for 30 minutes at 4° C. with a saturating concentration of anti-HLA-A2.1 (BB7.2) monoclonal antibody (mAb), then washed twice. The cells were then incubated for 30 minutes at 4° C. with a saturating concentration of FITC-conjugated goat IgG F(ab′)2 anti-mouse Ig (Caltag, South San Francisco, Calif.), washed twice, fixed in PBS/1% paraformaldehyde and analyzed using a FACS Calibur® cytofluorometer (Becton Dickinson, Immunocytometry systems, San Jose, Calif.).\nThe mean intensity of fluorescence (MIF) observed for each peptide concentration (after dividing of the MIF observed without peptide) was used as an estimate of peptide binding and expressed as a fluorescence index. Stabilization assays were performed similarly. Following initial evaluation of peptide binding at time 0, cells were washed in RPMI complete medium to remove free peptides and incubated in the continuous presence of 0.5 pg/ml brefeldin-A for 2, 4, 6 or 8 hours. […]"}}}
{"sequence": "YLKALQRPV (listed as Homo sapiens) [p210F]", "values": [{"measurement": "recognition of the native sequence by T cells elicited with the peptide", "setting": "[1]; T2 pulsed with native peptide", "value": "able to recognize their respective native sequences"}, {"measurement": "immune response (IFN-gamma secretion, ELISPOT)", "setting": "[1]; second or third round of peptide stimulation, peptide-pulsed T2 targets", "value": "most consistent and significant immune-responses"}, {"measurement": "increase of BIMAS prediction", "setting": "[2]", "value": 700, "unit": "fold"}, {"measurement": "binding to HLA A0201 in the T2 assay", "setting": "[3]", "value": "high avidity"}]}
